# Test results from article PMC8910432 (International Journal of Molecular Sciences, 2022).
# Where two headings read alike, the source gives them in different places.
# Columns and labels:
# [1] = molecular target: T1, 3CLpro (Severe acute respiratory syndrome coronavirus 2, UniProt P0DTD1); details: cited from earlier work; for IC50: read-out: IC50 3CLpro
# [2] = molecular target: T1, 3CLpro; format: binding; details: TA 10 to 500 µM, 30 min
# [3] = parameters: method as in PMID 12111394, PMID 16526653; details: ref 38, 39; cited from earlier work
# [4] = molecular target: T1, 3CLpro; details: FRET-based assay; cited from earlier work
# [5] = molecular target: SARS-CoV-2 3CLpro (Severe acute respiratory syndrome coronavirus 2, UniProt P0DTD1); assay: biochemical; format: biochemical; details: for concentration from which inhibitory effect on 3CLpro activity is significant: tested 0.1 to 100 µM
# [6] = molecular target: T1, 3CLpro; assay: biochemical; details: SPR, 1:1 binding model; read-out: KD TA/3CLpro
# [7] = molecular target: T1, 3CLpro; details: cited from earlier work; for binding free energy of 3CLpro: ref 66
# [8] = test system: mice; details: even at high dosages; cited from earlier work
compound,measurement,setting,value
"O=C(O[C@H]1Cc2c(O)cc(O)cc2OC1c1cc(O)c(O)c2c(=O)c(O)cc(C3Oc4cc(O)cc(O)c4C[C@H]3O)cc12)c1cc(O)c(O)c(O)c1 (stereo partly drawn) [3-isotheaflavin-3-gallate, reference compound]",IC50,[1],7000 nM
"O=C(OC[C@H]1OC(OC(=O)c2cc(O)c(O)c(OC(=O)c3cc(O)c(O)c(O)c3)c2)[C@H](OC(=O)c2cc(O)c(O)c(OC(=O)c3cc(O)c(O)c(O)c3)c2)[C@@H](OC(=O)c2cc(O)c(O)c(OC(=O)c3cc(O)c(O)c(O)c3)c2)[C@@H]1OC(=O)c1cc(O)c(O)c(OC(=O)c2cc(O)c(O)c(O)c2)c1)c1cc(O)c(O)c(OC(=O)c2cc(O)c(O)c(O)c2)c1 (stereo partly drawn) [TA, 1,2,3,4,6-penta-O-{3,4-dihydroxy-5-((3,4,5-trihydroxybenzoyl)oxy)benzoyl}-D-glucopyranose]",IC50,[1]; lower end of literature range,2100 nM
same,IC50,[1],3000 nM
same,inhibition of 3CLpro activity,"[1]; ref 35, 36, 37",100%
same,IC50,[1]; upper end of literature range,9000 nM
same,TA adsorption onto 3CLpro (QCMD),[2],TA adsorption is observed to increase with higher TA concentrations
same,solubility in water,[3],highly soluble
same,IC50,[4],13400 nM
same,reduction of 3CLpro activity,[5]; at 10 µM,up to 95%
same,IC50,[5]; this study,1000 nM
same,Kd,[6],57.5 nM
"O=C(OC[C@H]1O[C@@H](OC(=O)c2cc(O)c(O)c(O)c2)[C@H](O)[C@@H](OC(=O)c2cc(O)c(O)c(O)c2)[C@@H]1O)c1cc(O)c(O)c(O)c1 [TGG, 1,3,6-tri-O-galloyl-β-D-glucose]",concentration from which inhibitory effect on 3CLpro activity is significant,[5],≥ 50 µM
COc1ccc(-c2cc(=O)c3c(O)cc(O[C@@H]4O[C@H](CO[C@@H]5O[C@@H](C)[C@H](O)[C@@H](O)[C@H]5O)[C@@H](O)[C@H](O)[C@H]4O)cc3o2)cc1 [acaciin],free energy of the 3CLpro complex,[7]; ref 67,-27.61 kcal/mol
O=c1cc(-c2ccc(O)c(-c3c(O)cc(O)c4c(=O)cc(-c5ccc(O)cc5)oc34)c2)oc2cc(O)cc(O)c12 [amentoflavone],binding free energy of 3CLpro,[7],-32.14 ± 4.73 kcal/mol
"O=C(O[C@@H]1O[C@@H]2COC(=O)c3cc(O)c(O)c(O)c3-c3c(cc(O)c(O)c3O)C(=O)O[C@H]([C@H]1O)[C@@H]2O)c1cc(O)c(O)c(O)c1 [corilagin, β-1-O-galloyl-3,6-(R)-hexahydroxydiphenoyl-D-glucose]",toxicity in mice,[8],very low toxicity
same,inhibition of 3CLpro activity,[1]; ref 33,88%
same,concentration from which inhibitory effect on 3CLpro activity is significant,[5],≥ 50 µM
CCC(CC)COC(=O)[C@H](C)N[P@](=O)(OC[C@H]1O[C@@](C#N)(c2ccc3c(N)ncnn23)[C@H](O)[C@@H]1O)Oc1ccccc1 [remdesivir],binding free energy of 3CLpro,[7],-26.67 ± 3.39 kcal/mol
C[C@@H]1O[C@@H](OC[C@H]2O[C@@H](Oc3c(-c4ccc(O)c(O)c4)oc4cc(O)cc(O)c4c3=O)[C@H](O)[C@@H](O)[C@@H]2O)[C@H](O)[C@H](O)[C@H]1O [rutin],binding free energy of 3CLpro,[7],-30.96 ± 5.56 kcal/mol
(−)-epicatechin-3-O-gallate [ECG],IC50,[1],847 ± 5 nM
same,MMPBSA binding free energy with 3CLpro,[7]; ref 33,-41.5 ± 5.1 kcal/mol
same,MMPBSA binding free energy with 3CLpro,[7]; ref 68,-46.03 ± 6.48 kcal/mol
cyanidin-3-O-glucoside,MMPBSA binding free energy with 3CLpro,[7]; protomer A,-50.8 kcal/mol
same,MMPBSA binding free energy with 3CLpro,[7]; protomer B,-42.1 kcal/mol
